Here are results for 29 molecules from patent US6686366B1, “Compounds specific to adenosine A3 receptor and uses thereof” (OSI Pharmaceuticals, Inc., priority 1998, dated 2004).

Read-outs that look alike come from different tables or passages of the source.

For series [1], the target named is A1 adenosine receptor (Homo sapiens, UniProt P30542). Particulars: cited from earlier work.
Series [2] addresses T1, human A3 receptor (Homo sapiens, UniProt P0DMS8).
T1 sequence (P0DMS8 1-318): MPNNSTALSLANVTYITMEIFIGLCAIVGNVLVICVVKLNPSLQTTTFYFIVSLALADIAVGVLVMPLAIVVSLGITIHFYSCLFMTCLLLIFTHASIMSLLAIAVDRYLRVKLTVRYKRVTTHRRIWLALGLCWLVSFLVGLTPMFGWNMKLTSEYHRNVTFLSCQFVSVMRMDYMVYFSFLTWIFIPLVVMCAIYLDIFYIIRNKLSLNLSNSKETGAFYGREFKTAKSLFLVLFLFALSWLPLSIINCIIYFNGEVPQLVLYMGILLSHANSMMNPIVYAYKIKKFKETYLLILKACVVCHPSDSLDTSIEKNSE
Description: Displacement binding of [3H]CPX, yeast membranes expressing hA3R.

The target of series [3] is T2, human A1 adenosine receptor (Homo sapiens, UniProt P30542).
T2 sequence (P30542 1-326): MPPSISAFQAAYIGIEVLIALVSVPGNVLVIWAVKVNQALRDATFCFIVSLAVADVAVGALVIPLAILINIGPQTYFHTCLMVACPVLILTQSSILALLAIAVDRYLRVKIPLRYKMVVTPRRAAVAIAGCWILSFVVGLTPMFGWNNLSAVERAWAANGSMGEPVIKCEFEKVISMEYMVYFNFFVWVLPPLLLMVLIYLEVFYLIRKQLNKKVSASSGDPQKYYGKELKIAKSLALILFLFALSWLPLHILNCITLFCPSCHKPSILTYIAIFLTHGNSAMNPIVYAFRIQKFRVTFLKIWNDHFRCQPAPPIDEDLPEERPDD
As to the kind of experiment: Displacement binding of [3H]CPX, yeast membranes expressing hA1R.

The target in series [4] is T3, human adenosine A1 receptor (Homo sapiens, UniProt P30542).
T3 sequence (P30542 1-326): T2 sequence (P30542 1-326)
Description: Yeast β-Galactosidase reporter gene assay, inhibition of NECA-induced activity, strain CY12660. On the technique in general: A reporter such as luciferase makes a cellular process visible.

Series [5] has as its target T4, human A1 receptor subtype (Homo sapiens, UniProt P30542).
T4 sequence (P30542 1-326): T2 sequence (P30542 1-326)
As to the kind of experiment: biochemical.

Series [6] concerns the target T5, human A2a receptor subtype (Homo sapiens, UniProt P29274).
T5 construct: expressed in transfected cells; host or cells: HEK-293 (Cadus clone #5), membranes
Description: Adenosine 2a receptor subtype competition radioligand binding, [3H]CGS-21680, HEK293 membranes. Particulars: Table 13; concentration not given.

For series [7], the target named is T6, human A3 receptor subtype (Homo sapiens, UniProt P0DMS8).
T6 sequence (P0DMS8 1-318): T1 sequence (P0DMS8 1-318)
Description: Adenosine 3 receptor competition radioligand binding, [125I]AB-MECA, HEK293 membranes.

For series [8], the target named is T7, human A2b receptor subtype (Homo sapiens, UniProt P29275).
T7 construct: expressed in transfected cells; host or cells: HEK293, membranes
T7 sequence (P29275 1-332): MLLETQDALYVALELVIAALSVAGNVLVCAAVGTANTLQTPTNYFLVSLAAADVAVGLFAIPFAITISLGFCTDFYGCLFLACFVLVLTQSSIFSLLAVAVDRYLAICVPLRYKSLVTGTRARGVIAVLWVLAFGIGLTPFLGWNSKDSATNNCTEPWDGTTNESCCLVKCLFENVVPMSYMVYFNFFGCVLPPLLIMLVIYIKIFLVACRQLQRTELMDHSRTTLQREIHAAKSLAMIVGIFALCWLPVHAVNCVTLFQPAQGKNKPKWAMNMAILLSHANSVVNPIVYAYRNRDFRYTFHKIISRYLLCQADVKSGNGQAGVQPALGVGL
Description: Adenosine 2b receptor subtype competition radioligand binding, [3H]DPCPX, HEK293 membranes. As to conditions: Table 13.

Series [9] addresses T4, human A1 receptor subtype. As to conditions: Table 13; concentration not given.
[10] abbreviates: A1 Yeast IC50 (nM), Table 6, Effect of N6-Substituent.
Setting [11] is: A1 Binding Ki (nM), Table 6, Effect of N6-Substituent.
Where [12] appears, read: A1 Binding Ki (nM), Table 10, Effect of N6-Substituent.
Setting [13] is: A1 Yeast IC50 (nM), Table 10, Effect of N6-Substituent.

T5 sequence (P29274 whole entry): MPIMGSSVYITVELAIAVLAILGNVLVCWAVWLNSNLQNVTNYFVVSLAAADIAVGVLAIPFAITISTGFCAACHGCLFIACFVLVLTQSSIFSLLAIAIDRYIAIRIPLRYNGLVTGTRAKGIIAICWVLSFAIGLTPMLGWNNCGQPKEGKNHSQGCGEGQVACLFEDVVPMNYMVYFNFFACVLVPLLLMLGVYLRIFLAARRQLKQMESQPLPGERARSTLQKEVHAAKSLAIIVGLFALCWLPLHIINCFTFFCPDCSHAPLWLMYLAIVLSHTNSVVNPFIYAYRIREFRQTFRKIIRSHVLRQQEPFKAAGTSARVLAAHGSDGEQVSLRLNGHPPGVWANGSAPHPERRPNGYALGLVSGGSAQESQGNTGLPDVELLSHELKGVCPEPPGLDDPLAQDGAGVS

Regarding `CC(Cc1ccccc1)Nc1ncnc2c1ncn2[C@@H]1O[C@H](CO)[C@@H](O)[C@H]1O` (single isomer, unassigned; (-)) [PIA, (−)-N6-(2-phenylisopropyl)-adenosine], the reported affinity result in [1] is reported as “approximately 50 nM”. Broadly, the IC50 is the point on the concentration scale where inhibition reaches its midpoint. For the molecule `O=c1nc2[nH]c3ccccc3nc-2c(=O)[nH]1` [Alloxazine], the IC50 in series [2] worked out at 8220 nM; in series [3] it was 1070 nM. The molecule `Cc1[nH]c2nc(-c3ccccc3)nc(NC3CCC(NS(C)(=O)=O)CC3)c2c1C` (stereo not shown) [Compound 604] registered an IC50 in [4] (setting [10]) of more than 10000 nM. A word on the Ki: it is the equilibrium dissociation constant of an inhibitor or competing ligand from its target. `CC(=O)NC1CCC(Nc2nc(-c3ccccc3)nc3[nH]c(C)c(C)c23)CC1` (stereo not shown) [Compound 605] came in with a Ki in series [5] (setting [11]) of more than 10000 nM. In series [4] (setting [10]), this molecule gave an IC50 of more than 10000 nM. For the molecule `Cc1[nH]c2nc(-c3ccccc3)nc(NC3CCC(OC(=O)c4ccccc4)CC3)c2c1C` (stereo not shown) [Compound 606], the IC50 in series [4] was more than 10000 nM. `Cc1[nH]c2nc(-c3ccccc3)nc(NC3CCC(OC(=O)c4ccccc4)CC3)c2c1C` (stereo not shown) [Compound 611]: in [4] (read-out: A1 Yeast IC50, Table 6, Effect of N6-Substituent), the IC50 was more than 10000 nM.

In turn, `Cc1[nH]c2nc(-c3ccccc3)nc(N[C@@H]3CCC[C@H]3O)c2c1C` [Compound 614] came in with an inhibition constant Ki in series [5] (setting [11]) of 32.1 nM. As to `Cc1[nH]c2nc(C3CCCC3)nc(N[C@H]3CC[C@H](O)CC3)c2c1C` [Compound 703], in [5] (A1 Binding Ki (nM), Table 7, Effect of C2-Substituent), the Ki was 444 nM. The molecule also registered an IC50 in [4] (A1 Yeast IC50 (nM), Table 7, Effect of C2-Substituent) of more than 10000 nM. For `Cc1[nH]c2nc(-c3ccc(F)cc3)nc(NC3CCC(O)CC3)c2c1C` (stereo not shown) [Compound 707], the Ki in series [5] amounted to 62.8 nM. In turn, `Cc1c(C)n(C)c2nc(-c3ccccc3)nc(N[C@H]3CC[C@H](O)CC3)c12` [Compound 800] returned a Ki in [5] of 3310 nM. Further, the IC50 in series [4] is more than 10000 nM. `Cc1c(C)n(C(C)c2ccccc2)c2nc(-c3ccccc3)nc(NCC(C)C)c12` (stereo not shown) [Compound 903] showed an inhibition constant (Ki) in [5] (A1 Binding Bi (nM), Table 9) of 35.3 nM. Regarding `Cc1[nH]c2nc(-c3ccccc3)nc(NCCNC=O)c2c1C` [Compound 1001], the affinity in series [5] (setting [12]) corresponds to a Ki of 54.4 nM. In series [4] (setting [13]), this molecule returned a concentration for half-maximal inhibition (IC50) of 1870 nM. In [5] (setting [12]), `CCC(=O)NCCNc1nc(-c2ccccc2)nc2[nH]c(C)c(C)c12` [Compound 1003] displayed an inhibition constant (Ki) of 26.7 nM. In series [4] (setting [13]), this molecule registered an IC50 of 196 nM. Regarding `Cc1[nH]c2nc(-c3ccccc3)nc(NCCNC(=O)C3CC3)c2c1C` [Compound 1004], in [5] (setting [12]), the affinity corresponds to a Ki of 32.8 nM. Besides, the half-maximal inhibitory concentration (IC50) in series [4] (setting [13]) was 546 nM. On the same counts, the results for `Cc1[nH]c2nc(-c3ccccc3)nc(NCCNC(=O)C(C)C)c2c1C` [Compound 1005] are 147 nM and 3970 nM.

Molecule `CC(=O)C(=O)NCCNc1nc(-c2ccccc2)nc2[nH]c(C)c(C)c12` [Compound 1006] registered a Ki in series [5] (setting [12]) of 152 nM. This molecule also yielded an IC50 in series [4] (setting [13]) of 2920 nM.

Consider `Cc1[nH]c2nc(-c3ccccc3)nc(NCCNS(C)(=O)=O)c2c1C` [Compound 1007], for which the inhibition constant (Ki) in series [5] (setting [12]) turned out to be 692 nM. `Cc1[nH]c2nc(-c3ccccc3)nc(NCCNC(=O)CCC(=O)O)c2c1C` [Compound 1008] returned a Ki in series [5] (setting [12]) of 93.1 nM. The IC50 in series [4] (setting [13]) was determined as 3220 nM.

With `Cc1[nH]c2nc(-c3ccccc3)nc(NCCNC(=O)CCN)c2c1C` [Compound 1009], in series [5] (setting [12]), the inhibition constant (Ki) came to 475 nM. With `CC(=O)NCCCNc1nc(-c2ccccc2)nc2[nH]c(C)c(C)c12` [Compound 1010], in series [5] (setting [12]), the Ki was 675 nM. The molecule also displayed an IC50 in series [4] (setting [13]) of 9380 nM. In series [5] (setting [12]), `CC(=O)OCCNc1nc(-c2ccccc2)nc2[nH]c(C)c(C)c12` [Compound 1011] displayed a Ki of 122 nM. Moreover, the concentration for half-maximal inhibition (IC50) in [4] (setting [13]) came to 2070 nM. In the same order, the values of `CCC(=O)NCCCNc1nc(-c2ccccc2)nc2[nH]c(C)c(C)c12` [Compound 1013] are 270 nM and 3010 nM.

Regarding `Cc1[nH]c2nc(-c3ccccc3)nc(NCCO)c2c1C` [Compound 1014], in series [5] (setting [12]), the Ki was determined as 385 nM. Half-maximal inhibition in series [4] (setting [13]) (IC50) was put at 2000 nM. In the same order, the values of `Cc1[nH]c2nc(-c3ccccc3)nc(NCCCCO)c2c1C` [Compound 1016] are 176 nM and 5050 nM. In [4] (A1 Yeast IC50 (nM), Table 11, Effect of N6-Substituent), `CC(=O)NC(C)CNc1nc(-c2ccccc2)nc2[nH]c(C)c(C)c12` (stereo not shown) [Compound 1104] gave an IC50 of 58.7 nM.

In the case of `CNC(=O)NCCCNc1nc(-c2ccccc2)nc2[nH]c(C)c(C)c12` [Compound 1310], the “Binding A2a, value given in %” value in [6] was 76%. Take `CC(=O)NCCCCNc1nc(-c2ccccc2)nc2[nH]c(C)c(C)c12` [Compound 1311]: the results for the Ki in series [7] and in series [8] were 5.3 nM and 736 nM, respectively. As for `Cc1[nH]c2nc(-c3ccccc3)nc(NCCNC(=O)C3(N)CC3)c2c1C` [Compound 1313], in [9], the “Binding A1, value printed in %” value amounted to 30%. The “Binding A2a, value given in %” value in [6] worked out at 65%.

The term melting point denotes the temperature, or range, at which the solid turns liquid. On to `CC(=O)NCCNc1nc(-c2ccccc2)nc2[nH]c(COc3ccccc3)cc12` [Example 17, 4-(2-acetylaminoethyl)amino-6-phenoxymethyl-2-phenyl-7H-pyrrolo[2,3d]pyrimidine], for which the melting point was 196 to 197 °C.
